Earlier results in paper PMC3725996 (Bioorganic & medicinal chemistry letters, 2010).

Columns and labels:
[1] = tested on: extracellular DA in rat nucleus accumbens; details: following acute or repeated nicotine administration, ref [16]
[2] = tested on: nicotine self-administration; details: rats; ref [17]

Compound: Cc1ccc[n+](CCCCCCCCCCCC[n+]2cccc(C)c2)c1.[Br-].[Br-] [bPiDDB 1, N,N′-dodecane-1,12-diyl-bis-3-picolinium dibromide]
- Effect on increase in extracellular DA in nucleus accumbens [1]: dose-dependently reduced the increase in extracellular DA
- Oral bioavailability (oral route, ref Albayati et al., unpublished data): limited bioavailability when given by the oral route
- Brain bioavailability (subcutaneous delivery, 14C-bPiDDB, ref [19]–[20]): brain-bioavailable after subcutaneous delivery
- Effect on nicotine self-administration [2]: dose-dependently decreased nicotine self-administration
- Effect on sucrose-maintained responding [2]: but not sucrose-maintained responding
